Columns and labels:
Test in all cases: relative viability (nuclei count vs DMSO), 5 days (fraction); higher = more cells survive
[1] = compound: Cc1ccc2nc(NCCN)c3ncc(C)n3c2c1
Procedure, shortened: (§1)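 Hoechst staining, done together with fixation and permeabilisation, marked nuclei for 4× imaging and MetaXpress counting. This followed 5 days without medium change after lung cancer cell lines, kept overnight at 37 °C in 1536-well plates, were pinned with five library-drug doses (not always all listed) spaced by √10 on vehicle-anchored plates. Viability is the ratio of treated-well to vehicle-well nuclei, expressed as a median across plates. Plates passed only at control CV below 25% with at least one doubling.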

[2] = compound: O=C(/C=C/c1ccccc1)NC(NC(=S)Nc1cccc2cccnc12)C(Cl)(Cl)Cl [Salubrinal]
Procedure, shortened: as §1

[3] = compound: Cc1ccc2nc(NCCN)c3ncc(C)n3c2c1 + CC1(C)CCC(c2ccc(Cl)cc2)=C(CN2CCN(c3ccc(C(=O)NS(=O)(=O)c4ccc(N[C@H](CCN5CCOCC5)CSc5ccccc5)c(S(=O)(=O)C(F)(F)F)c4)cc3)CC2)C1 [Navitoclax] (partner 0.5 µM)
Procedure, shortened: (§2)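 Values are medians from duplicate plates. Each reflects relative viability, defined as the nuclei count of treated wells over that of vehicle wells. Lung cancer cell lines in 1536-well plates were pin-tool dosed one day after seeding with one drug alone or with a fixed anchor-drug dose plus five library-drug doses (not always all listed) in √10 steps, then fixed, stained and imaged at 4× after 5 days.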

[4] = compound: Cc1ccc2nc(NCCN)c3ncc(C)n3c2c1 + COc1cc2c(Oc3ccc(NC(=O)C4(C(=O)Nc5ccc(F)cc5)CC4)cc3F)ccnc2cc1OCCCN1CCOCC1 [Foretinib] (partner 0.25 µM)
Procedure, shortened: as §2

Cell Line	relative viability ([1]; 0.04 µM)	relative viability ([1]; 0.1265 µM)	relative viability ([1]; 0.4 µM)	relative viability ([1]; 1.265 µM)	relative viability ([1]; 4 µM)	relative viability ([2]; 0.08 µM)	relative viability ([2]; 0.253 µM)	relative viability ([2]; 0.8 µM)	relative viability ([2]; 2.53 µM)	relative viability ([2]; 8 µM)	relative viability ([3]; first compound 0.04 µM)	relative viability ([3]; first compound 0.1265 µM)	relative viability ([3]; first compound 0.4 µM)	relative viability ([3]; first compound 1.265 µM)	relative viability ([3]; first compound 4 µM)	relative viability ([4]; first compound 0.04 µM)	relative viability ([4]; first compound 0.1265 µM)	relative viability ([4]; first compound 0.4 µM)	relative viability ([4]; first compound 1.265 µM)	relative viability ([4]; first compound 4 µM)
NCI-H1650	0.983	0.903	0.865	0.915	0.772	1.1	0.795	1.03	0.893	0.912	1.3	1	1.12	1.25	0.934	1.22	1.15	1.22	1.13	0.943
NCI-H1395	0.959	0.941	0.844	0.859	0.633	0.882	1.01	1.08	1.01	0.769	1.27	1.13	1.31	1	1.1	0.998	0.971	0.947	0.722	0.989
LU99A	1.07	0.904	0.986	0.961	0.839	1.07	0.862	1.03	0.9	0.898	0.784	0.822	0.761	0.883	0.782	0.884	0.796	0.805	0.921	0.83
NCI-H1355	1.05	0.983	0.938	0.995	0.935	1.11	0.941	1.03	0.979	0.955	0.909	0.942	0.924	0.9	0.806	1.03	0.943	0.901	0.977	0.978
HCC-78	1.08	0.979	0.919	0.943	0.826	1.03	0.937	1.27	0.949	0.891	0.919	0.8	0.778	0.757	0.689	0.579	0.584	0.493	0.626	0.558
HCC-15	1	1.09	0.907	0.916	0.86	1.13	0.93	1.14	1.08	0.963	0.702	0.732	0.684	0.677	0.675	1.08	1.07	1.06	0.885	0.723
EKVX	1.07	0.889	0.992	0.948	0.826	1.04	0.837	1.01	1.06	1.04	1.1	0.964	0.924	0.992	0.883	0.987	1.04	0.866	0.822	0.777
NCI-H2087	1.13	1.15	0.861	0.997	0.953	1.16	0.931	1.07	0.989	0.968	0.985	1.09	1.01	0.856	1.06	1.13	1.08	1.11	1.05	1.09
LK-2	0.961	0.928	0.881	0.979	1.03	1.08	1.01	1.27	1.16	1	0.831	0.65	0.886	0.77	0.789	1.28	1.2	0.936	0.967	1.06
NCI-H1437	1.02	0.982	0.988	0.939	0.873	0.992	0.922	1.12	1.02	0.968	1.08	1.03	1.12	1.07	0.992	1.32	1.23	1.33	1.28	1.2
COR-L23	1.05	1.04	0.964	0.994	0.994	1.11	1.1	1.06	0.966	0.95	1.05	0.944	1.1	0.973	0.886	0.966	0.915	0.938	1.01	0.865
SK-MES-1	1.05	1.01	0.984	1.01	0.992	1.14	0.997	1.09	0.988	0.945	1.26	1.33	1.14	1.13	1.17	1.04	0.91	1.01	0.853	0.875
NCI-H838	1.03	0.951	0.912	0.907	0.929	1.1	0.987	1.07	1.07	0.922	1.23	1.05	1.16	1.15	1.12	1.16	1.08	1.04	1.02	0.982
A549	1.09	0.927	1.01	0.958	0.879	1.2	0.855	1.03	0.99	0.924	1.27	1.25	1.37	1.2	0.955	1.08	0.85	0.975	0.921	0.855
A-427	1.01	1.01	0.968	1.05	0.95	1.06	0.973	1.12	0.965	1.08	0.914	0.864	0.946	1.02	0.968	1.09	1.03	0.962	1	0.948
LCLC-97TM1	1.07	0.934	0.978	1.04	0.899	1.07	1.06	1.21	0.992	1.11	0.57	0.444	0.39	0.392	0.487	0.91	0.998	0.934	0.931	0.892

— the supplement of paper PMC10307832
